US20240400620A1, “Compositions Containing Coronavirus Proteins and Epitopes” (priority 2021, published 2024)

Tested on: activated CD4+ T cells from MA10-infected HLA-DRB1*0101 Ifnar1^−/− mice
Type: cell-based

Sequence | expansion of multifunctional IFNγ+/TNF+ CD4+ T cells | frequency of IFNγ-producing activated CD4+ T cells compared with unstimulated control cells
TSNFRVQPTESIVRF [S315-329] | capable of expanding | 
VLSFELLHAPATVCG [S512-526] | capable of expanding | 
GTWLTYTGAIKLDDK (misc_feature - Nucleoprotein; Severe acute respiratory syndrome-related coronavirus) [N328-342] | capable of expanding | 
LNTLVKQLSSNFGAI [S959-973] |  | increase was significant
RWYFYYLGTGPEAGL (misc_feature - Nucleoprotein; Severe acute respiratory syndrome-related coronavirus) [N107-121] |  | increase was significant
